According to article PMC4468608, “A distinct p53 target gene set predicts for response to the selective p53–HDM2 inhibitor NVP-CGM097” (eLife, 2015):
Like-named read-outs stand apart in the source and are kept apart here.

Test system: cell lines from the Cancer Cell Line Encyclopedia (CCLE)
Assay: High-throughput cell viability assay, CCLE cell line panel (n = 356)
Type: cell-based, human
Settings: Homo sapiens
Procedure: Cell lines were partitioned into sensitive and insensitive groups based on compound potency (IC50). […] All other cell lines were obtained from ATCC (American Type Culture Collection), DSMZ (Deutsche Sammlung von Mikroorganismen und Zellkulturen), and HSRRB (Health Science Research Resources Bank) and cultured in RPMI or Dulbecco's modified Eagle's medium plus 10% FBS (Invitrogen, Carlsbad, CA) at 37°C, 5% CO2.

Measured: IC50

COc1cc2c(cc1OC(C)C)[C@H](c1ccc(Cl)cc1)N(c1ccc(N(C)C[C@H]3CC[C@H](N4CCNC(=O)C4)CC3)cc1)C(=O)C2 [NVP-CFC218]
2.65 µM: A-375, A-375, TP53 WT
3.45 µM: GP2d, TP53 WT
1.36 µM: CHP-212, CHP-212, TP53 WT
2.03 µM: ACHN, TP53 WT
3.38 µM: Granta-519, GRANTA-519, TP53 WT
2.24 µM: A2780, A2780, TP53 WT
2.84 µM: H4, TP53 WT
1.18 µM: DOHH-2, DOHH-2, TP53 WT
5.89 µM: COV434, COV434, TP53 WT
2.32 µM: DK-MG, TP53 WT
0.91 µM: COLO-679, COLO-679, TP53 WT
2.31 µM: G-402, G-402, TP53 WT
3.16 µM: G-361, G-361, TP53 WT
2.18 µM: A204, A-204, TP53 WT
4.89 µM: HCC1500, HCC1500, TP53 WT
2.01 µM: AMO1, AMO-1, TP53 WT
4 µM: DBTRG-05MG, TP53 WT
> 8 µM: A 172, read-out: NVP- CFC218 IC50 (µM), cell line A172, central_nervous_system, TP53 WT | AN3-CA, AN3 CA, TP53 MUT | ASPC1, AsPC-1, TP53 MUT | AU565, AU565, TP53 MUT | BCPAP, B-CPAP, TP53 MUT | BEN, TP53 MUT | BFTC-905, BFTC-905, TP53 MUT | BFTC-909, BFTC-909, TP53 MUT | BHY, TP53 MUT | BICR 6, TP53 MUT | BL-41, BL-41, TP53 MUT | BL-70, TP53 MUT | BT-20, BT-20, TP53 MUT | BT-474, BT-474, TP53 MUT | BT-549, BT-549, TP53 MUT | BXPC-3, BxPC-3, TP53 MUT | CAL-12T, TP53 MUT | CAL-78, TP53 MUT | CAL-85-1, read-out: NVP- CFC218 IC50 (µM), cell line CAL-85-1, breast, TP53 MUT | CAMA-1, read-out: NVP- CFC218 IC50 (µM), cell line CAMA-1, breast, TP53 MUT | CAPAN-1, Capan-1, TP53 MUT | CAS-1, TP53 MUT | CFPAC-1, CFPAC-1, TP53 MUT | CHL-1, CHL-1, TP53 MUT | CMK-11-5, CMK-11-5, TP53 MUT | COLO 205, COLO 205, TP53 MUT | COLO 792, TP53 WT | COLO-741, COLO 741, TP53 MUT | COR-L23, COR-L23, TP53 WT | COV318, COV318, TP53 MUT | COV362, COV362, TP53 MUT | COV504, read-out: NVP- CFC218 IC50 (µM), cell line COV504, ovary, TP53 MUT | COV644, TP53 WT | Calu-3, Calu-3, TP53 MUT | Calu-6, Calu-6, TP53 MUT | Caov-3, Caov-3, TP53 MUT | Capan-2, read-out: NVP- CFC218 IC50 (µM), cell line Capan-2, pancreas, TP53 WT | ChaGo-K-1, ChaGo-K-1, TP53 MUT | DB, TP53 MUT | DEL, TP53 MUT | DMS-53, DMS 53, TP53 MUT | DMS-114, DMS 114, TP53 MUT | DU-145, DU 145, TP53 MUT | Daoy, TP53 MUT | Detroit 562, Detroit 562, TP53 MUT | EB2, TP53 MUT | EBC-1, EBC-1, TP53 MUT | EFE-184, EFE-184, TP53 MUT | EFM-19, EFM-19, TP53 MUT | EFO-21, EFO-21, TP53 MUT | EM-2, TP53 MUT | ESS-1, read-out: NVP- CFC218 IC50 (µM), cell line ESS-1, endometrium, TP53 MUT | FU-OV-1, TP53 MUT | FaDu, TP53 MUT | Fu97, FU97, TP53 MUT | GCIY, TP53 MUT | GI-1, TP53 MUT | GMS-10, GMS-10, TP53 MUT | HARA, TP53 MUT | HCC15, HCC-15, TP53 MUT | HCC70, HCC70, TP53 MUT | HCC78, HCC-78, TP53 MUT | HCC1806, HCC1806, TP53 MUT | HCC1954, HCC1954, TP53 MUT | HCC4006, HCC4006, TP53 MUT
3.63 µM: CAKI-2, Caki-2, TP53 WT
0.7 µM: BDCM, TP53 WT
1.6 µM: G-401, G-401, TP53 WT
